Assays:
[1] = tested on: subjects with Prader-Willi syndrome; assay: Proposed randomized, double-blind placebo controlled study in subjects with Prader-Willi syndrome; format: in vivo, human
Excerpt: For the proposed study thirty subjects with Prader-Willi syndrome are recruited. Subjects are females and males aged between 4 and 20 years (Mean=12.1 SD=4.4). All subjects have confirmed loss of function in the 15q11-q13 region on the paternal copy of chromosome 15 and also meet diagnostic criteria for Prader-Willi syndrome based on assessment of behavioral and somatic symptoms. The majority of subjects (72%) are being treated with rhGH at screening. Subjects are instructed that concomitant medications are to be stable for at least six weeks prior to study.
The study is a randomized, double-blind placebo controlled parallel study with subjects randomized 1:1:1 to placebo, 6 mg/kg or 12 mg/kg of Cyclo-L-Glycyl-L-2-Allylproline is to be administered as an oral liquid twice daily for eighty-four days.
Subjects are tested at baseline using the following instruments: the Hyperphagia Questionnaire for Clinical Trials (HQ-CT), the Clinical Global Impression of Severity (CGI-S), the Caregiver Global Impression of Change (CaGI-I), the Aberrant Behavior Checklist (ABC) and ABC Subscales, the Social Responsiveness Scale, the Repetitive Behavior Scale-Revised (RBS-R), the PWS Anxiety and Distress Questionnaire (PADQ) and the Children's Yale-Brown Obsessive-Compulsive Scale (CY-BOCS). In addition, the following measurements are made at baseline: Body Fat Assessment (BFA), fasting blood glucose, blood lipids (HDL, LDL, VLDL, triglycerides), serum IGF-1 (total, bound to IGF-1 Binding Protein-3 [IGFBP-3]), fasting insulin and the Homeostatic Model Assessment for Insulin Resistance (HOMA-IR).
The effect of treatment with Cyclo-L-Glycyl-L-2-Allylproline is analyzed by conducting a repeated analysis of covariance (ANCOVA) on change from baseline scores for each of the measures plus the Clinical Global Impression of Change (CGI-I). Safety is assessed using caregiver reports of adverse events, a panel of standard laboratory tests and electrocardiograms (ECG).

Magel2-null mice [2] = assay: Insulin levels in female Magel2-null mice; format: in vivo, mouse; parameters: key to Insulin, significance: **** = p < 0.0001; ns = not significant
Procedure: (§1) In vivo experiments were conducted in C57BL/6-Magel2tm1Stw/J (Magel2-null) mice at age P60 and their wild-type littermates during the light phase (littermates that were wild-type for Magel2 were used as controls). Ten mice per treatment group were used for studies 1 and 2, and six mice per group for study 3. In study 1: C57BL/6-Magel2tm1Stw/J (Magel2-null) mice were assessed on behavioral assays. Study 2 tested the efficacy of cG-2-AllylP in treating obesity and insulin levels in Magel2-null mice. Study 3 tested the IGF-1 level in Magel2-null mice. Because human beings have the same genetic abnormality, studies of Magel2-null mice are reasonably predictive of effects of compounds of Formulas I, II, III and IV in human beings with Prader-Willi Syndrome.
(§2) Testing was performed during the light phase of the circadian cycle, with the order of testing being determined by the principle of conducting the most stressful tests last. Assays were designed to reproduce and expand on the original behavioral characterization of Magel2-null mice. Magel2-null and wild-type control mice were dosed once daily for 6 weeks prior to testing and tested 30 minutes following a dose of cG-2-AllylP (NNZ2591). Study groups and the treatment matrix are described in Table 2 below.
Prader-Willi Syndrome is associated with metabolic and hormonal abnormalities in humans. Magel2-null mice recapitulate some of the metabolic and hormonal aspects of humans with Prader-Willi Syndrome. Experiments were conducted to determine if cG-2-AllylP could have a normalizing effect in metabolic and hormonal aspects.
Because female Magel2-null mice present a significant increase in body weight compared with their littermate wild-type controls, female Magel2-null mice were used for this study.
Insulin was measured for each group.

Magel2-null mice [3] = assay: Elevated Plus Maze (time in open arms); format: in vivo, mouse; parameters: key: **** = p < 0.0001; ns = not significant
Excerpt: (§3) The mouse locus 7qB4/B5 (syntenic with the Prader-Willi region at chromosome position 15q11-q13 in humans) encompasses the cluster of paternally-expressed imprinted genes Magel2, Ndn, Mkrn3, and Peg12. As maternal imprinting silences the Magel2 allele, only the paternally inherited Magel2 allele is expressed. Heterozygous females were bred with wild-type males (or C57BL/6J inbred males) to maintain the line; as the resulting offspring will have no abnormal phenotype. To obtain “Magel2-null” offspring (both maternal and paternal Magel2 alleles are non-functional), wild-type females are bred with heterozygous males; allowing maternal transmission of the imprinted/silenced wild-type allele and paternal transmission of the Magel2-lacZ (null) allele. Magel2-null mice have disrupted circadian rhythm and metabolism, total activity, food consumption, weight before weaning, and fertility in both sexes, as well as increased adiposity after weaning and altered behavior. Magel2-null mice on this C57BL/6J genetic background recapitulate Prader-Willi syndrome. Because the genetic mutation in the Magel2-null animals is the same as the mutation in human beings, studies in Magel2-null mice are reasonably predictive of effects of compounds in human beings.
as §1, §2
The Elevated Plus Maze test is used to assess anxiety related behaviors. Normal mice show a preference for being in closed arms over open arms.

[4] = Delivery of cG-2-AllylP into CSF, blood and brain after single oral gavage dose; format: in vivo, male Sprague Dawley rats; details: for Mean Test Article Exposure, Blood / Mean Test Article Exposure, CSF / Mean Test Article Exposure, Brain: rat
Procedure: In an in vivo study, male Sprague Dawley rats (aged 14 weeks) received a single dose of cG-2-AllylP, either 100 mg/kg or 200 mg/kg by oral gavage. Cerebrospinal fluid (CSF) and whole blood were collected at 1.5 and 4 hours post-dose, and brain tissue was collected at 4 hours post-dose to evaluate cG-2-AllylP exposure.

Magel2-null mice [5] = assay: Partition test of social preference; format: in vivo, mouse; parameters: key: **** = p < 0.0001; ns = not significant
Excerpt: as §3, §1, §2
People with Prader-Willi Syndrome show deficits in social behavior compared with people without Prader-Willi Syndrome. Two tests were carried out to assess the social behavior deficits of Magel2-null mice.
The partition test of social preference measures the preference shown for an object versus a familiar mouse.

[6] = 6 mg/kg or 12 mg/kg oral liquid twice daily for eighty-four days
[7] = 6 mg/kg or 12 mg/kg oral liquid twice daily for eighty-four days vs placebo
[8] = Magel2-null + NNZ2591 200 mg/kg
[9] = Magel2-null + Vehicle vs. Magel2-null + NNZ2591 (100 mg/kg)
[10] = Magel2-null + Vehicle vs. Magel2-null + NNZ2591 (200 mg/kg)
[11] = WT + NNZ2591 (100 mg/kg) vs. Magel2-null + NNZ2591 (100 mg/kg)
[12] = WT + NNZ2591 (200 mg/kg) vs. Magel2-null + NNZ2591 (200 mg/kg)
[13] = WT + Vehicle vs. WT + NNZ2591 (200 mg/kg)
[14] = single oral dose 100 mg/kg, 1.5 h post-dose
[15] = single oral dose 100 mg/kg, 4 h post-dose
[16] = single oral dose 200 mg/kg, 1.5 h post-dose
[17] = single oral dose 200 mg/kg, 4 h post-dose

Concentration in blood versus brain tissue ([4]; 4 hours post-dose): approximately equivalent
Dose dependence of concentration ([4]; blood and CSF at 1.5 hours, blood, CSF and brain at 4 hours, single oral dose 100 vs 200 mg/kg): approximately proportional increase
Mean Test Article Exposure, Blood [4, 14]: 58.5 µg/mL
Mean Test Article Exposure, CSF [4, 14]: 40.4 µg/mL
Mean Test Article Exposure, Blood [4, 15]: 15.6 µg/mL
Mean Test Article Exposure, Brain [4, 15]: 22.6 µg/mL
Mean Test Article Exposure, CSF [4, 15]: 11.0 µg/mL
Mean Test Article Exposure, Blood [4, 16]: 116.0 µg/mL
Mean Test Article Exposure, CSF [4, 16]: 82.2 µg/mL
Mean Test Article Exposure, Blood [4, 17]: 34.2 µg/mL
Mean Test Article Exposure, Brain [4, 17]: 37.0 µg/mL
Mean Test Article Exposure, CSF [4, 17]: 24.7 µg/mL
Compound: C=CCC12CCCN1C(=O)CNC2=O [cG-2-AllylP, (8aS)-Allyl-hexahydropyrrolo[1,2-a]pyrazine-1,4-dione]
Duration and severity of adverse events [1, 6]: short duration and mild severity
Serious Adverse Events [1, 6]: No Serious Adverse Events are reported
Incidence of treatment-emergent adverse events [1, 7]: no difference in the incidence of treatment-emergent adverse events between placebo and either dose
Laboratory tests and ECG measures [1, 7]: no treatment-related pattern of abnormalities on laboratory tests or ECG measures
Insulin (mean ± SEM) (Magel2-null mice [2]; Magel2-null + NNZ2591 100 mg/kg): 143 pM
Insulin (mean ± SEM) (Magel2-null mice [2]; [8]): 119 pM
Insulin, significance (Magel2-null mice [2]; [8]): (ns)
Insulin (mean ± SEM) (Magel2-null mice [2]; WT + NNZ2591 100 mg/kg): 112 pM
Insulin (mean ± SEM) (Magel2-null mice [2]; WT + NNZ2591 200 mg/kg): 115 pM
Elevated plus maze (time in open arm), Sidak's multiple comparisons test, Summary (Magel2-null mice [3]; [9]): **** (**** = p < 0.0001)
Elevated plus maze (time in open arm), Sidak's multiple comparisons test, Summary (Magel2-null mice [3]; [10]): **** (**** = p < 0.0001)
Elevated plus maze (time in open arm), Sidak's multiple comparisons test, Summary (Magel2-null mice [3]; [11]): ns
Elevated plus maze (time in open arm), Sidak's multiple comparisons test, Summary (Magel2-null mice [3]; [12]): ns
Elevated plus maze (time in open arm), Sidak's multiple comparisons test, Summary (Magel2-null mice [3]; WT + Vehicle vs WT + NNZ2591 (100 mg/kg)): ns
Elevated plus maze (time in open arm), Sidak's multiple comparisons test, Summary (Magel2-null mice [3]; [13]): ns
Social preference, Sidak's multiple comparisons test, Summary (Magel2-null mice [5]; [9]): **** (**** = p < 0.0001)
Social preference, Sidak's multiple comparisons test, Summary (Magel2-null mice [5]; [10]): **** (**** = p < 0.0001)
Social preference, Sidak's multiple comparisons test, Summary (Magel2-null mice [5]; [11]): ns
Social preference, Sidak's multiple comparisons test, Summary (Magel2-null mice [5]; WT + NNZ2591 (100 mg/kg) vs. Magel2-null + NNZ2591 (200 mg/kg)): ns
Social preference, Sidak's multiple comparisons test, Summary (Magel2-null mice [5]; [12]): ns
Social preference, Sidak's multiple comparisons test, Summary (Magel2-null mice [5]; WT + Vehicle vs. WT + NNZ2591 (100 mg/kg)): ns
Social preference, Sidak's multiple comparisons test, Summary (Magel2-null mice [5]; [13]): ns

Reference: patent US20240132511A1, “TREATMENTS OF PRADER-WILLI SYNDROME” (Neuren Pharmaceuticals Limited, priority 2021, published 2024)
